18 molecules from ChEMBL document CHEMBL1132853, “Design and synthesis of highly potent fumagillin analogues from homology modeling for a human MetAP-2” (Bioorg Med Chem Lett, 2000) can be followed below.

Values after ≈ are worked out from the molar mass of the structure shown.

One assay has as its system CPAE. In words: Tested in vitro for its ability to inhibit cell proliferation of calf pulmonary artery endothelial cells measured […] by SRB method. The class given is functional, cell-based, Bos taurus. For orientation: The SRB assay estimates cell density from bound dye.
The subject of the next assay is EL4. In words: Tested in vitro for its ability to inhibit cell proliferation of lymphoma EL-4 cells measured […] by MTT method. The class given is functional, cell-based, Mus musculus. On the technique in general: Tetrazolium dyes change colour on reduction, which living cells bring about.
The subject of the next assay is P388. In words: Tested in vitro for its ability to inhibit cell proliferation of murine leukemia P388D1 cells measured […] by MTT method. The class given is functional, cell-based. To be noted: Mus musculus.
Setting [1] is: Bos taurus, CPAE, Artery, read-out: IC50.
Setting [2] is: Mus musculus, EL4, read-out: IC50.

What is called IC50 is the concentration that gives 50% inhibition. `COc1ccc(COC(=O)O[C@@H]2CC[C@]3(CO3)[C@@H]([C@@]3(C)O[C@@H]3CC=C(C)C)[C@@H]2OC)cc1`: the IC50 turned out to be 18 ng/mL (≈ 40.3 nM) in the assay with CPAE (setting [1]) and 42 ng/mL (≈ 94.1 nM) in the assay with EL4 (setting [2]).
Take `COc1ccc(CCOC(=O)O[C@@H]2CC[C@]3(CO3)[C@@H]([C@@]3(C)O[C@@H]3CC=C(C)C)[C@@H]2OC)cc1`: the IC50 in the assay on CPAE (setting [1]) stood at 2.3 ng/mL (≈ 4.99 nM); with EL4 (setting [2]), 153 ng/mL (≈ 332 nM).
On to `COc1ccc(/C=C\C(=O)O[C@@H]2CC[C@]3(CO3)[C@@H]([C@@]3(C)O[C@@H]3CC=C(C)C)[C@@H]2OC)cc1`, for which the IC50 in the assay with CPAE (setting [1]) was 24 ng/mL (≈ 54.2 nM); in the assay with EL4 (setting [2]) it was 12 ng/mL (≈ 27.1 nM).
As to `CO[C@@H]1[C@H](O)CC[C@]2(CO2)[C@H]1[C@@]1(C)O[C@@H]1CC=C(C)C`, the IC50 with CPAE (setting [1]) was 15 ng/mL (≈ 53.1 nM); with EL4 (setting [2]), 5.16 ng/mL (≈ 18.3 nM); with P388, over 10 ng/mL.
On the same counts, the results for `COc1ccc(CCNC(=O)O[C@@H]2CC[C@]3(CO3)[C@@H]([C@@]3(C)O[C@@H]3CC=C(C)C)[C@@H]2OC)cc1OC` are 0.044 ng/mL (≈ 0.0899 nM), 0.042 ng/mL (≈ 0.0858 nM) and over 1 ng/mL.
On to `COc1cc(CCC(=O)O[C@@H]2CC[C@]3(CO3)[C@@H]([C@@]3(C)O[C@@H]3CC=C(C)C)[C@@H]2OC)cc(OC)c1OC`, for which the IC50 was 44 ng/mL (≈ 87.2 nM) in the assay on CPAE (setting [1]) and 36 ng/mL (≈ 71.3 nM) in the assay on EL4 (setting [2]).
As to `COc1cc(/C=C/C(=O)O[C@@H]2CC[C@]3(CO3)[C@@H]([C@@]3(C)O[C@@H]3CC=C(C)C)[C@@H]2OC)cc(OC)c1OC`, the IC50 with CPAE (cpae) was 0.00003 ng/mL (≈ 5.97e-05 nM); in the assay on EL4 (el4) it was 0.00015 ng/mL (≈ 0.000298 nM); in the assay with P388, over 1 ng/mL.
In the case of `CO[C@@H]1[C@H](OC(=O)/C=C/c2ccccc2)CC[C@]2(CO2)[C@H]1[C@@]1(C)O[C@@H]1CC=C(C)C`, the half-inhibitory concentration (IC50) with CPAE (setting [1]) was 0.046 ng/mL (≈ 0.112 nM); with EL4 (setting [2]), 0.05 ng/mL (≈ 0.121 nM); in the assay on P388, over 1 ng/mL.
Consider `CO[C@@H]1[C@H](OC(=O)NCc2ccc(C(F)(F)F)cc2)CC[C@]2(CO2)[C@H]1[C@@]1(C)O[C@@H]1CC=C(C)C`, for which the IC50 with CPAE (setting [1]) is 0.0054 ng/mL (≈ 0.0112 nM); in the assay on EL4 (setting [2]) it was 0.014 ng/mL (≈ 0.029 nM); with P388 it was over 1 ng/mL.
Turning to `CO[C@@H]1[C@H](OC(=S)SCc2ccccc2)CC[C@]2(CO2)[C@H]1[C@@]1(C)O[C@@H]1CC=C(C)C`, the IC50 in the assay on CPAE (setting [1]) stood at 42 ng/mL (≈ 93.6 nM); with EL4 (setting [2]) it was 14 ng/mL (≈ 31.2 nM).
For the molecule `COc1ccc(CCCC(=O)O[C@@H]2CC[C@]3(CO3)[C@@H]([C@@]3(C)O[C@@H]3CC=C(C)C)[C@@H]2OC)cc1`, the values for the IC50 in the assay with CPAE (setting [1]) and in the assay with EL4 (setting [2]) were 125 ng/mL (≈ 273 nM) and 83 ng/mL (≈ 181 nM), respectively.
Consider `CO[C@@H]1[C@H](OC(=O)OCc2ccc([N+](=O)[O-])cc2)CC[C@]2(CO2)[C@H]1[C@@]1(C)O[C@@H]1CC=C(C)C`, for which the IC50 in the assay with CPAE (setting [1]) is 0.11 ng/mL (≈ 0.238 nM); in the assay on EL4 (setting [2]) it was 2.47 ng/mL (≈ 5.35 nM); with P388 it was over 1 ng/mL.
Turning to `COc1ccc(CNC(=O)O[C@@H]2CC[C@]3(CO3)[C@@H]([C@@]3(C)O[C@@H]3CC=C(C)C)[C@@H]2OC)cc1`, the IC50 in the assay on CPAE (setting [1]) was 0.044 ng/mL (≈ 0.0988 nM); with EL4 (setting [2]), 0.042 ng/mL (≈ 0.0943 nM); in the assay on P388, over 1 ng/mL.
For the molecule `CO[C@@H]1[C@H](OC(=O)NCc2ccccc2)CC[C@]2(CO2)[C@H]1[C@@]1(C)O[C@@H]1CC=C(C)C`, the IC50 in the assay with CPAE (setting [1]) was 0.07 ng/mL (≈ 0.168 nM); in the assay on EL4 (setting [2]), 0.01 ng/mL (≈ 0.0241 nM); in the assay on P388, over 1 ng/mL.
Regarding `COc1ccc(/C=C/C(=O)O[C@@H]2CC[C@]3(CO3)[C@@H]([C@@]3(C)O[C@@H]3CC=C(C)C)[C@@H]2OC)cc1`, the concentration for half-maximal inhibition (IC50) with CPAE (cpae) is 0.00006 ng/mL (≈ 0.000136 nM); with EL4 (el4), 0.00019 ng/mL (≈ 0.000429 nM); with P388, over 1 ng/mL.
Regarding `C/C=C/C=C/C(=O)O[C@@H]1CC[C@]2(CO2)[C@@H]([C@@]2(C)O[C@@H]2CC=C(C)C)[C@@H]1OC`, the IC50 with CPAE (setting [1]) is 12 ng/mL (≈ 31.9 nM); in the assay with EL4 (setting [2]), 5.05 ng/mL (≈ 13.4 nM); in the assay on P388, over 1 ng/mL.
For the molecule `CO[C@@H]1[C@H](OC(=O)/C=C/C=C/C=C/C=C/C(=O)O)CC[C@]2(CO2)[C@H]1[C@@]1(C)O[C@@H]1CC=C(C)C` [FUMAGILLIN], the IC50 is 0.37 ng/mL (≈ 0.807 nM) in the assay with CPAE (setting [1]), 0.42 ng/mL (≈ 0.916 nM) in the assay with EL4 (setting [2]) and over 1 ng/mL in the assay on P388.
Turning to `CO[C@@H]1[C@H](OC(=O)NC(=O)CCl)CC[C@]2(CO2)[C@H]1[C@@]1(C)O[C@@H]1CC=C(C)C` [O-CHLOROACETYLCARBAMOYLFUMAGILLOL], the IC50 is 0.04 ng/mL (≈ 0.0995 nM) in the assay with CPAE (setting [1]), 0.03 ng/mL (≈ 0.0746 nM) in the assay on EL4 (setting [2]) and over 10 ng/mL with P388.
